# Test results published in patent US10172907B2, “Compositions comprising β-arrestin 1 and methods of use thereof for therapeutic modulation of aldosterone levels in heart disease” (NOVA SOUTHEASTERN UNIVERSITY, priority 2010, dated 2019).
# “Also recorded” adds a separate entry of the source. Non-standard residues stand in square brackets, D forms with d. Residues, ends and D or L forms follow the SMILES beside them. Sar = CNCC(=O)O
# Columns and labels:
# [1] = test system: adrenal βarr1-overexpressing post-MI rats; test: Echocardiography (ejection fraction) of adrenal βarr1-overexpressing post-MI rats treated with sartans and CORET; format: in vivo, rat; conditions: for cardiac ejection fraction (EF): adrenal βarr1-overexpressing post-MI rats, 7-day treatment, saline-treated 35±0.3%; for ejection fraction (EF %) vs. Saline, in words: 3-week post-MI rats, 7 days post Adβarr1 gene transfer and concomitant treatment
# Experimental: (§1) In vivo studies: For the in vivo studies, post-MI rats overexpressing Purl in their adrenals received 7-day-long treatments with the agents of interest.
# (§2) Aldosterone measurements: Plasma aldosterone and in vitro aldosterone secretion in the supernatant of cultured H295R cells were determined by ELISA with the Aldosterone EIA kit from ALPCO Diagnostics, Salem, N.H. (Lymperopoulos A. et al. Proc. Natl. Acad. Sci. USA 106:5825-5830 2009). In vivo adrenal gene deliveries: Adrenal-specific in vivo gene delivery in rats was performed as previously described in Lymperopoulos A. et al. Proc. Natl. Acad. Sci. USA 106:5825-5830 2009). Echocardiographic and hemodynamic measurements: Two-dimensional guided M-mode and Doppler echocardiography and closed chest cardiac catheterization were performed as described in Lymperopoulos, A. et al. Nat. Med. 13:315-323 2007. Statistical analysis: Data are presented as mean±SEM. One- or two-way ANOVA with Bonferroni test was used for analysis of numeric parameters and differences were considered significant at p<0.05. Experimental Results
# (§3) Statistical analysis: p<0.05, vs. Saline, ^, p<0.05, vs. CORET (SEQ ID NO:4) or IRB, n=6 rats/group.
# [2] = test system: adrenal βarr1-overexpressing post-MI rats; test: In vivo hemodynamic analysis (cardiac contractility) of adrenal βarr1-overexpressing post-MI rats treated with sartans and CORET; set-up: species or system rat; conditions: vs. Saline
# Experimental: as §1, §2, §3
# H295R cells = test: In vitro βarr1-dependent SII-induced aldosterone secretion in H295R cells (ELISA); format: cell-based, human; conditions: H295R cells transfected with Adβarr1, stimulated with 1 mM SII, standard doses of agents; p<0.05 vs. SII
# Experimental: as §2
# Of note, when endogenous Purl is inhibited, no effects by drugs and peptides on SII-induced aldosterone secretion are seen (data not shown), as expected, since SII is a “biased” βarr-only agonist (Luttrell, L. M. et al. Pharmacol. Rev. 62:305-330 2010; Rajagopal, S. et al. Nat. Rev. Drug Discov. 9:373-386 2010; Kenakin, T. et al. Pharmacol. Rev. 62:265-304 2010). Statistical analysis: <0.05, vs. SII, n=3 independent experiments.
# [3] = test system: adrenal βarr1-overexpressing post-MI rats; test: Plasma aldosterone in adrenal βarr1-overexpressing post-MI rats treated with sartans and CORET; format: in vivo, rat; conditions: 3-week post-MI rats, 7 days post Adβarr1 adrenal gene transfer, 7-day treatment
# Experimental: as §1, §2
# Statistical analysis: p<0.05, vs. Saline, n=6 rats/group.
# AT1R [4] = molecular target: T1, AT1R (Homo sapiens, UniProt P30556); test: Activation of βarr2 by human AT1R in vitro by AngII peptide analogs (FIGS. 1B-C); format: cell-based; conditions: for EC50: in vitro
# T1 sequence (P30556 1-359): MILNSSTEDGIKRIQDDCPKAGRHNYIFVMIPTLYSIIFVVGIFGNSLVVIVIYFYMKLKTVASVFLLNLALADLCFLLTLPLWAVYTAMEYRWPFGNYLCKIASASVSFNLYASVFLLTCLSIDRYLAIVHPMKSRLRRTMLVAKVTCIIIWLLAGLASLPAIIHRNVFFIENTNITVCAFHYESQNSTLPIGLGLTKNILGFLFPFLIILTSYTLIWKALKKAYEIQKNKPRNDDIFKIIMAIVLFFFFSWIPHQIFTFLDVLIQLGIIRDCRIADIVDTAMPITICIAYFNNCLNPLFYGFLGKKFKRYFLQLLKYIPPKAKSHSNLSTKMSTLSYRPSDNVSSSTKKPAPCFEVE
# AT1R [5] = molecular target: T1, AT1R; test: Biased antagonism of sartans for AT1R-stimulated βarr vs. G-protein-mediated signaling (FIG. 6); conditions: both IC50 in nM; <1 biased for βarr antagonism, >1 biased towards G-protein antagonism
# Excerpt: This ranking was derived from the ratios of individual IC50 for AT1R-βarr antagonism to IC50 for G-protein antagonism (both in nM) for each sartan.
# AT1R [6] = molecular target: T1, AT1R; test: Inhibition of SII-induced activation of βarr2 by human AT1R in vitro (FIG. 1A); conditions: % normalized signal
# post-MI rat hearts = test: Masson-trichrome staining for cardiac fibrosis in post-MI rats; format: in vivo; conditions: 7 days concomitant drug vs. vehicle (saline)
# Experimental: (§4) In vivo adrenal gene delivery in post-myocardial infarction (MI) rats: All animal procedures and experiments were performed in accordance with the guidelines of the IACUC committees of Thomas Jefferson and Nova Southeastern Universities. MI was performed using a known cryo-infarct method (Lymperopoulos, A. et al. Nat. Med. 13:315-323 2007). Adrenal-specific in vivo gene delivery was done essentially as described in Lymperopoulos, A. et al. (Mol. Ther. 16:302-307 2008) via direct delivery of adenovirus in the adrenal gland. […] Construction and purification of adenovirus: Recombinant adenovirus that encode full length wild-type βarr1 (Adβarr1; SEQ ID NO:1) or a rat βarr1 C-terminal fragment (Adβarr-1ct) (SEQ ID NO:3, amino acid residues 369-418 of the C-terminal of rat βarr-1 (SEQ ID NO:2); see FIG. 7A) were constructed as described in Lymperopoulos A. et al. Proc. Nati. Acad. Sci. USA 106:5825-5830 2009 and Lymperopoulos, A. et al. Nat. Med. 13:315-323 2007. […] Plasma aldosterone measurements: Rat plasma aldosterone levels were determined by EIA (Aldosterone EIA Kit, ALPCO Diagnostics, Salem, N.H., USA) as described in Lymperopoulos A. et al. Proc. Natl. Acad. Sci. USA 106:5825-5830 2009 and Mihailidou et al. Hypertension 40:124-129 2002. […]
# post-MI rats [7] = test: Plasma aldosterone (EIA) after adrenal gene delivery in post-MI rats; format: in vivo, rat
# Experimental: In vivo adrenal gene delivery in post-myocardial infarction (MI) rats: All animal procedures and experiments were performed in accordance with the guidelines of the IACUC committees of Thomas Jefferson and Nova Southeastern Universities. MI was performed using a known cryo-infarct method (Lymperopoulos, A. et al. Nat. Med. 13:315-323 2007). Adrenal-specific in vivo gene delivery was done essentially as described in Lymperopoulos, A. et al. (Mol. Ther. 16:302-307 2008) via direct delivery of adenovirus in the adrenal gland. […] Construction and purification of adenovirus: Recombinant adenovirus that encode full length wild-type βarr1 (Adβarr1; SEQ ID NO:1) or a rat βarr1 C-terminal fragment (Adβarr-1ct) (SEQ ID NO:3, amino acid residues 369-418 of the C-terminal of rat βarr-1 (SEQ ID NO:2); see FIG. 7A) were constructed as described in Lymperopoulos A. et al. Proc. Nati. Acad. Sci. USA 106:5825-5830 2009 and Lymperopoulos, A. et al. Nat. Med. 13:315-323 2007. […] The black box highlights the clathrin- and AP-2 adaptin-binding domains, which are necessary for the receptor internalizing and signaling functions of βarr1 (Ferguson, S. S. Pharmacol Rev 53:1-24 2001) Transgenes were cloned into shuttle vector pAdTrack-CMV, which harbors a CMV-driven green fluorescent protein (GFP), to form the viral constructs by using standard cloning protocols. As control adenovirus, empty vector which expressed only GFP (AdGFP) was used. The resultant adenovirus were purified using two sequential rounds of CsCl density gradient ultracentrifugation as described in Lymperopoulos A. et al. Proc. Natl. Acad. Sci. USA 106:5825-5830 2009 and Lymperopoulos, A. et al. Nat. Med. 13:315-323 2007. Plasma aldosterone measurements: Rat plasma aldosterone levels were determined by EIA (Aldosterone EIA Kit, ALPCO Diagnostics, Salem, N.H., USA) as described in Lymperopoulos A. et al. Proc. Natl. Acad. Sci. USA 106:5825-5830 2009 and Mihailidou et al. Hypertension 40:124-129 2002. Echocardiographic and hemodynamic measurements: Two-dimensional guided M-mode and Doppler echocardiography using a 14-Mhz transducer (Vevo 770 Echograph, VisualSonic Inc., Toronto, Ontario, Canada) and closed chest cardiac catheterization were performed in rats as described in Lymperopoulos, A. et al. Nat. Med. 13:315-323 2007 and Rengo, G. et al. Circulation 119:89-98 2009. Three independent echocardiographic measurements were taken in both modes. […]
# post-MI rats [8] = test: Echocardiographic parameters after adrenal gene delivery in post-MI rats; format: in vivo, rat; conditions: Adβarr1 post-MI rats
# Experimental: as §4
smiles,measurement,setting,value
"CCOc1nc2cccc(C(=O)O)c2n1Cc1ccc(-c2ccccc2-c2nnn[nH]2)cc1 [CAN, Candesartan]",cardiac ejection fraction (EF),[1],41.1±1%
"CCSC[C@H](NC(=O)[C@H](Cc1ccc(O)cc1)NC(=O)[C@@H](NC(=O)[C@H](CCCNC(=N)N)NC(=O)CNC)C(C)C)C(=O)N[C@@H](Cc1c[nH]cn1)C(=O)N1CCC[C@H]1C(=O)N[C@@H](CC(C)C)C(=O)O [CORET, Sar^1,Cys(Et)^5,Leu^8-AngII] (H-[Sar]RVYC(Et)HPL-OH; N-terminus and C-terminus assumed)",myocardial systolic function in response to maximal dose of Isoproterenol (Max. Iso),[2],severely impaired myocardial systolic function
same,SII-induced aldosterone secretion,H295R cells,can enhance; also recorded: far greater aldosterone secretion in vitro than SII
same,plasma aldosterone levels vs. Saline,[3],an increase; also recorded: significantly worsens hyperaldosteronism
same,EC50,AT1R [4],1 nM
same,times less potent than AngII for βarr activation by the AT1R,AT1R [4]; ratio of EC50s,10 times
same,"ejection fraction (EF %) vs. Saline, in words",[1],further worsened cardiac function
"CCCCC1=NC2(CCCC2)C(=O)N1Cc1ccc(-c2ccccc2-c2nnn[nH]2)cc1 [IRB, Irbesartan]",myocardial systolic function in response to maximal dose of Isoproterenol (Max. Iso),[2],severely impaired myocardial systolic function
same,plasma aldosterone levels vs. Saline,[3],unable to counter the adrenal βarr1-mediated hyperaldosteronism
same,ratio of IC50 for AT1R-βarr antagonism to IC50 for G-protein antagonism,AT1R [5],1.05
same,relative potency for inhibition of SII-induced activation of βarr2 by human AT1R,AT1R [6],the least potent βarr inhibitors
same,"ejection fraction (EF %) vs. Saline, in words",[1],further worsened cardiac function
same,cardiac ejection fraction (EF),[1],32±1%
"CCCCc1nc(Cl)c(CO)n1Cc1ccc(-c2ccccc2-c2nn[nH]n2)cc1 [LOS, Losartan]",cardiac fibrosis in Adβarr1-adrenal treated rat hearts under drug treatment,post-MI rat hearts,incapable of reducing the cardiac fibrosis
same,plasma aldosterone reduction by losartan in Adβarr1ct-treated post-MI rats,post-MI rats [7]; losartan 50 mg/kg/day for 7 days post-gene delivery,no significant aldosterone reduction
same,"plasma aldosterone, losartan-treated control AdGFP post-MI rats","post-MI rats [7]; losartan 50 mg/kg/day for 7 days post-gene delivery, saline-treated 470±20",402 ± 10 pg/mL
same,"plasma aldosterone, losartan-treated Adβarr1 post-MI rats","post-MI rats [7]; losartan 50 mg/kg/day for 7 days post-gene delivery, saline-treated 845±150, not significant",880 ± 88 pg/mL
"CC[C@H](C)[C@H](NC(=O)[C@@H]1CCCN1C(=O)[C@H](Cc1c[nH]cn1)NC(=O)[C@@H](NC(=O)[C@@H](NC(=O)[C@@H](NC(=O)[C@H](CCCNC(=N)N)NC(=O)CNC)C(C)C)[C@@H](C)CC)[C@@H](C)CC)C(=O)O [SII, Sar^1,Ile^4,Ile^8-AngII]",EC50,AT1R [4],11.2 nM
"CCCCC(=O)N(Cc1ccc(-c2ccccc2-c2nnn[nH]2)cc1)[C@H](C(=O)O)C(C)C [VAL, Valsartan]",myocardial systolic function in response to maximal dose of Isoproterenol (Max. Iso),[2],significantly improves it
same,SII-induced aldosterone secretion,H295R cells,can inhibit
same,plasma aldosterone levels vs. Saline,[3],profound decreases
same,plasma aldosterone levels vs. Saline,[3]; listed as valsartan,significant plasma aldosterone reductions
same,"ejection fraction (EF %) vs. Saline, in words",[1],significantly improved
same,cardiac ejection fraction (EF),[1],40±1%
COC(=O)[C@@H]1CC2=CC(=O)CC[C@]2(C)[C@@]23O[C@@H]2C[C@@]2(C)[C@@H](CC[C@@]24CCC(=O)O4)[C@H]13 [eplerenone],cardiac fibrosis in Adβarr1-adrenal treated rat hearts under drug treatment,post-MI rat hearts,markedly reduced fibrosis
same,effect on plasma aldosterone increase caused by Adβarr1 treatment,"post-MI rats [7]; Adβarr1 post-MI rats, 100 mg/kg/day eplerenone for 7 days",no effect
same,EF reduction and LVEDD increase induced by adrenal βarr1 overexpression,post-MI rats [8]; eplerenone 100 mg/kg/d for 7 days,prevented
same,"effects of adrenal βarr1 overexpression (EF, LVEDD)","post-MI rats [8]; eplerenone low dose 5 mg/kg/d, data not shown",prevented
